Key:
p-AXL = biological target: T1, p-AXL (Homo sapiens, UniProt P30530); assay: Axl phosphorylation inhibition ELISA in HEK293T cells transfected with NanoLuc-tagged AXL; assay type: cell-based; settings: 1 h compound incubation, media (OptiMEM)
T1 construct: expressed in transfected cells; host or cells: HEK293T
T1 sequence (P30530 26-894): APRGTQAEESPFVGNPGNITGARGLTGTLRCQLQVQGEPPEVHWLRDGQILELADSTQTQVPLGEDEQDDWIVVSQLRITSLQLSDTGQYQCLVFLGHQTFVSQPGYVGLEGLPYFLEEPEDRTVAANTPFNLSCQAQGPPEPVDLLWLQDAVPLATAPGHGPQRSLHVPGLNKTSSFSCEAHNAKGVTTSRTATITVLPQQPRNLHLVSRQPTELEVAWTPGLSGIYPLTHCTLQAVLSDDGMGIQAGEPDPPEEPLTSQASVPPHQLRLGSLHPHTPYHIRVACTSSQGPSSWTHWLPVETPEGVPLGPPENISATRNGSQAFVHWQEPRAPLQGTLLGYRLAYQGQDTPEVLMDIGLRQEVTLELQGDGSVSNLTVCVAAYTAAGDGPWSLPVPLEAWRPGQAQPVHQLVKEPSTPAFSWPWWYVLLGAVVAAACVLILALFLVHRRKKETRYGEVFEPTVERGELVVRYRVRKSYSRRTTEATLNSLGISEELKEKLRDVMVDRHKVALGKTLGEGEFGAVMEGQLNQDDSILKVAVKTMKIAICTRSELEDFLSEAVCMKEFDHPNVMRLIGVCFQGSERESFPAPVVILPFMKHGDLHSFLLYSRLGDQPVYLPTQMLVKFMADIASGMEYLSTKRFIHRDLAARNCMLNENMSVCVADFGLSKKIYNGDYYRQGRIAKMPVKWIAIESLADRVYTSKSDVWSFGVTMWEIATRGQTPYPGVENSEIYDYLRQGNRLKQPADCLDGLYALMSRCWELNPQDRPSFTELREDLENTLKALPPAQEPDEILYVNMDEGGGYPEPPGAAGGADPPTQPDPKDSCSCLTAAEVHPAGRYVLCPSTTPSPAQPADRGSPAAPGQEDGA
In short: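 Phospho-AXL detected by luminescence of NanoLuc tag after capture of cell lysate on biotinylated anti-phospho-tyrosine mAb plates (2 h). Lysates came from transiently transfected HEK293T cells treated 1 h at 37° C with serial 2-fold dilutions (22 points). IC50 by standard 4-parameter logistic fitting.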

Axl = biological target: T2, Axl (Homo sapiens, UniProt P30530); assay: Biochemical potency, HTRF KinEASE-TK kinase assay; parameters: purchased Invitrogen; settings: 5 nM AXL, 700 μM ATP
T2 sequence (P30530 26-894): T1 sequence (P30530 26-894)
In short: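 Steps: compound plus kinase, 1 h RT; add ATP (700 µM final) and biotin-TK substrate (800 nM final); run 2 h RT; stop into streptavidin-XL665/anti-phospho cryptate detection mix, 1 h; read 665/620. AXL at 5 nM, TYRO3 and MER at 1 nM.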

SMILES	IC50 (p-AXL) [nM]	IC50 (Axl) [nM]
Cc1cccnc1-c1ccnc(-c2c[nH]c3ncc(-c4ccc5c(c4)CC[C@@H](N4C6COCC4C6)CC5)cc23)c1 [Example 83, 3-Methyl-2′-{5-[(7S)-7-{3-oxa-6-azabicyclo[3.1.1]heptan-6-yl}-6,7,8,9-tetrahydro-5H-benzo[7]annulen-2-yl]-1H-pyrrolo[2,3-b]pyridin-3-yl}-2,4′-bipyridine]	< 100	< 100
Cc1cccc(F)c1-c1ccc(-c2c[nH]c3ncc(-c4ccc5c(c4)CC[C@@H](N4C6COCC4C6)CC5)cc23)cc1 [Example 84, 6-[(7S)-2-(3-{2′-Fluoro-6′-methyl-[1,1′-biphenyl]-4-yl}-1H-pyrrolo[2,3-b]pyridin-5-yl)-6,7,8,9-tetrahydro-5H-benzo[7]annulen-7-yl]-3-oxa-6-azabicyclo[3.1.1]heptane]	> 1000	< 100
CO[C@H]1C[C@@H](N[C@H]2CCc3ccc(-c4cnc5[nH]nc(-c6ccc(-c7ncccc7C)cn6)c5c4)cc3CC2)C1 [Example 108, (7S)-2-(3-{3-Methyl-[2,3′-bipyridin]-6′-yl}-1H-pyrazolo[3,4-b]pyridin-5-yl)-N-[cis-3-methoxycyclobutyl]-6,7,8,9-tetrahydro-5H-benzo[7]annulen-7-amine]	< 100	< 100
Cn1ncnc1-c1ccc(-c2c[nH]c3ncc(-c4ccc5c(c4)CC[C@@H](N4C6COCC4C6)CC5)cc23)cc1 [Example 133, 6-[(7S)-2-{3-[4-(1-Methyl-1H-1,2,4-triazol-5-yl)phenyl]-1H-pyrrolo[2,3-b]pyridin-5-yl}-6,7,8,9-tetrahydro-5H-benzo[7]annulen-7-yl]-3-oxa-6-azabicyclo[3.1.1]heptane]	< 100	< 100
Cn1ncnc1-c1ccc(-c2n[nH]c3ncc(-c4ccc5c(c4)CC[C@@H](N4C[C@@H]6C[C@H]4CO6)CC5)cc23)cc1 [Example 135, (1S,4S)-5-[(7S)-2-{3-[4-(1-Methyl-1H-1,2,4-triazol-5-yl)phenyl]-1H-pyrazolo[3,4-b]pyridin-5-yl}-6,7,8,9-tetrahydro-5H-benzo[7]annulen-7-yl]-2-oxa-5-azabicyclo[2.2.1]heptane]	< 100	< 100
Cc1ccc(C)c(-c2ccc(-c3n[nH]c4ncc(-c5ccc6c(c5)CC[C@@](C)(N5CCC[C@H]5C)CC6)cc34)cc2)n1 [Example 136, 3,6-Dimethyl-2-(4-{5-[(7S)-7-methyl-7-[(2R)-2-methylpyrrolidin-1-yl]-6,7,8,9-tetrahydro-5H-benzo[7]annulen-2-yl]-1H-pyrazolo[3,4-b]pyridin-3-yl}phenyl)pyridine]	< 100	< 100
CCn1ncnc1-c1ccc(-c2n[nH]c3ncc(-c4ccc5c(c4)CC[C@@H](N4C6COCC4C6)CC5)cc23)cc1 [Example 138, 6-[(7S)-2-{3-[4-(1-Ethyl-1H-1,2,4-triazol-5-yl)phenyl]-1H-pyrazolo[3,4-b]pyridin-5-yl}-6,7,8,9-tetrahydro-5H-benzo[7]annulen-7-yl]-3-oxa-6-azabicyclo[3.1.1]heptane]	< 100	< 100
Cc1ccc(C)c(-c2ccc(-c3n[nH]c4ncc(-c5ccc6c(c5)CC[C@@H](N5C[C@@H]7C[C@H]5CO7)CC6)cc34)cc2)n1 [Example 141, (1S,4S)-5-[(7S)-2-{3-[4-(3,6-Dimethylpyridin-2-yl)phenyl]-1H-pyrazolo[3,4-b]pyridin-5-yl}-6,7,8,9-tetrahydro-5H-benzo[7]annulen-7-yl]-2-oxa-5-azabicyclo[2.2.1]heptane]	< 100	< 100
Cc1ccc(C)c(-c2ccc(-c3c[nH]c4ncc(-c5ccc6c(c5)CC[C@@H](N5C7COC[C@H]5C7)CC6)cc34)c(F)c2)n1 [Example 144, (1R)-6-[(7S)-2-{3-[4-(3,6-Dimethylpyridin-2-yl)-2-fluorophenyl]-1H-pyrrolo[2,3-b]pyridin-5-yl}-6,7,8,9-tetrahydro-5H-benzo[7]annulen-7-yl]-3-oxa-6-azabicyclo[3.1.1]heptane]	< 100	< 100
Cc1ccc(C(F)(F)F)nc1-c1ccc(-c2n[nH]c3ncc(-c4ccc5c(c4)CC[C@@H](N4C6COC[C@H]4C6)CC5)cc23)cc1 [Example 145, (1R)-6-[(7S)-2-(3-{4-[3-Methyl-6-(trifluoromethyl)pyridin-2-yl]phenyl}-1H-pyrazolo[3,4-b]pyridin-5-yl)-6,7,8,9-tetrahydro-5H-benzo[7]annulen-7-yl]-3-oxa-6-azabicyclo[3.1.1]heptane]	100 to 1000	< 100
Cc1ccc(C(F)(F)F)nc1-c1ccc(-c2c[nH]c3ncc(-c4ccc5c(c4)CC[C@@H](N4C6COC[C@H]4C6)CC5)cc23)cc1 [Example 146, (1R)-6-[(7S)-2-(3-{4-[3-Methyl-6-(trifluoromethyl)pyridin-2-yl]phenyl}-1H-pyrrolo[2,3-b]pyridin-5-yl)-6,7,8,9-tetrahydro-5H-benzo[7]annulen-7-yl]-3-oxa-6-azabicyclo[3.1.1]heptane]	100 to 1000	< 100

Next, values leading:

IC50 (p-AXL) [nM]	IC50 (Axl) [nM]	SMILES
< 100	< 100	Cc1cccnc1-c1cccc(-c2c[nH]c3ncc(-c4ccc5c(c4)CC[C@@H](N4C6COCC4C6)CC5)cc23)c1 [Example 82, 6-[(7S)-2-{3-[3-(3-Methylpyridin-2-yl)phenyl]-1H-pyrrolo[2,3-b]pyridin-5-yl}-6,7,8,9-tetrahydro-5H-benzo[7]annulen-7-yl]-3-oxa-6-azabicyclo[3.1.1]heptane]
< 100	< 100	Cc1cccnc1-c1ccc(-c2n[nH]c3ncc(-c4ccc5c(c4)CC[C@@H](N[C@H]4CCCOC4)CC5)cc23)nc1 [Example 106, (3S)—N-[(7S)-2-(3-{3-Methyl-[2,3′-bipyridin]-6′-yl}-1H-pyrazolo[3,4-b]pyridin-5-yl)-6,7,8,9-tetrahydro-5H-benzo[7]annulen-7-yl]oxan-3-amine]
< 100	< 100	Cn1ncnc1-c1ccc(-c2n[nH]c3ncc(-c4ccc5c(c4)CC[C@@H](N[C@H]4CCCOC4)CC5)cc23)cc1 [Example 134]
< 100	< 100	Cc1ccc(C)c(-c2ccc(-c3c[nH]c4ncc(-c5ccc6c(c5)CC[C@@H](N5C7COCC5C7)CC6)cc34)cc2)n1 [Example 137, 6-[(7S)-2-{3-[4-(3,6-Dimethylpyridin-2-yl)phenyl]-1H-pyrrolo[2,3-b]pyridin-5-yl}-6,7,8,9-tetrahydro-5H-benzo[7]annulen-7-yl]-3-oxa-6-azabicyclo[3.1.1]heptane]
< 100	< 100	Cc1ccc(C)c(-c2ccc(-c3n[nH]c4ncc(-c5ccc6c(c5)CC[C@@H](N5CCCC5)CC6)cc34)cc2)n1 [Example 139, 3,6-Dimethyl-2-(4-{5-[(7S)-7-(pyrrolidin-1-yl)-6,7,8,9-tetrahydro-5H-benzo[7]annulen-2-yl]-1H-pyrazolo[3,4-b]pyridin-3-yl}phenyl)pyridine]
< 100	< 100	Cc1ccc(C)c(-c2ccc(-c3n[nH]c4ncc(-c5ccc6c(c5)CC[C@@H](N[C@H]5CCCOC5)CC6)cc34)cc2)n1 [Example 140, (3S)—N-[(7S)-2-{3-[4-(3,6-Dimethylpyridin-2-yl)phenyl]-1H-pyrazolo[3,4-b]pyridin-5-yl}-6,7,8,9-tetrahydro-5H-benzo[7]annulen-7-yl]oxan-3-amine]
< 100	< 100	Cc1ccc(C)c(-c2ccc(-c3c[nH]c4ncc(-c5ccc6c(c5)CC[C@@H](N5C7COC[C@H]5C7)CC6)cc34)nc2)n1 [Example 142, 3,6-Dimethyl-6′-{5-[(7S)-7-[(1R)-3-oxa-6-azabicyclo[3.1.1]heptan-6-yl]-6,7,8,9-tetrahydro-5H-benzo[7]annulen-2-yl]-1H-pyrrolo[2,3-b]pyridin-3-yl}-2,3′-bipyridine]
100 to 1000	< 100	Cc1ccc(C)c(-c2ccc(-c3n[nH]c4ncc(-c5ccc6c(c5)CC[C@@H](N5C7COC[C@H]5C7)CC6)cc34)c(F)c2)n1 [Example 143, (1R)-6-[(7S)-2-{3-[4-(3,6-Dimethylpyridin-2-yl)-2-fluorophenyl]-1H-pyrazolo[3,4-b]pyridin-5-yl}-6,7,8,9-tetrahydro-5H-benzo[7]annulen-7-yl]-3-oxa-6-azabicyclo[3.1.1]heptane]
